Molecules are shown by their SMILES.

The test system of data set [1] is isolated rabbit urethra. Briefly: Effects on the isolated rabbit urethra (contraction, in vitro). Format: cell-based. The following applies: Oryctolagus cuniculus, Krebs solution, 37° C. On the procedure: (§1) Female rabbits weighing 2.5-3.0 kg were sacrificed and exsanguinated. The urethra and portal vein were dissected out and suspended in organ baths containing oxygenated Krebs solution at 37° C. Two rings of urethra (4 mm broad) and two longitudinal strips of the portal vein were used. The basal tension was adjusted to about 10 mN after an equilibration time of 60 minutes. Isometric tension was recorded via a force transducer (Statham FT03) and registered on a Grass polygraph model 7.
(§2) Submaximum concentrations of noradrenaline (6×10^-5 M) were used to achieve reference contractions.
(§3) The test substances were added cumulatively (12 concentrations) until a maximum response was obtained.

Data set [2] has as its system isolated rabbit portal vein. Briefly: Effects on the isolated rabbit portal vein (contraction, in vitro). Format: cell-based. The following applies: Oryctolagus cuniculus. On the procedure:
as §1, §2, §3

Data set [3] concerns urethra (urethral pressure in anaesthetized rabbits). Briefly: Effects on urethral pressure in anaesthetized rabbits. Format: in vivo, rabbit. The settings on record: Oryctolagus cuniculus, iv, read-out: Max. urethral pressure in vivo, in % of NA-max, anaesthetized rabbits, i.v. injections of different doses; reference noradrenaline 0.025 μg/kg i.v. On the procedure:
(§4) Rabbits, weighing 2.5-3 kg, were anaesthetized by pentobarbitone (initially 40 mg/kg i.v. and for maintenance anaesthesia 10 mg/kg, h). For recording of urethral pressure a catheter (Dog cath nr 6.) was inserted into the urethra and placed at the point of highest pressure. The basal urethral pressure was approximately 10 cm H2 O. The blood pressure was recorded via a catheter (PP50) inserted into a femoral artery. Substances were injected intravenously into a catheter in a femoral vein. The continuous intravenous infusion of pentobarbitone kept the depth of anesthesia at a constant level through the experiment. Three consecutive noradrenaline injections (0.025 μg/kg i.v.) were given initially to constitute reference responses. Repeated intravenous injections of different doses of the same test compound were given in a randomized manner. […] In other pharmacological experiments (not described here) it was also shown that the described compounds had no or minimal effect on other organs, such as for example the urinary bladder, central nervous system, intestine, vas deferens etc.

Data set [4] deals with blood pressure in anaesthetized rabbits. The experiment in a line: Effects on blood pressure in anaesthetized rabbits. It is filed as in vivo, rabbit. The settings on record: i.v. injections of different doses, femoral artery catheter. On the procedure:
as §4

In the case of `CC(C)Oc1c(Cl)cccc1C(O)CN(C)C.Cl` (stereo not drawn) [Compound 9, 3-Chloro-α-[(dimethylamino)methyl]-2-(1-methylethoxy)-benzenemethanol, hydrochloride], the EC50 in data set [1] (read-out: Urethra, in vitro: EC50-value (effective concentration inducing a half maximum contraction), female rabbit urethra rings, cumulative addition) turned out to be 11 µM; in data set [2] (read-out: Portal vein, in vitro: EC50 value (effective concentration inducing a half maximum contraction)), 60 µM. The Emax in data set [1] (read-out: Urethra, in vitro: Max. contraction, female rabbit urethra rings, cumulative addition (12 concentrations), reference noradrenaline 6×10^-5 M) is 79%; in data set [2] (read-out: Portal vein, in vitro: Max. contraction, female rabbit portal vein longitudinal strips, cumulative addition (12 concentrations), reference noradrenaline 6×10^-5 M, Krebs solution, 37° C.), 22%; in data set [3], 192%. In addition, the “Blood pressure; max change, in %” value in data set [4] was 14%.

For the origin of these results see patent US5527821A, “Pharmacologically active alpha-[tertiary-aminomethyl]-benzenemethanol derivatives” (Pharmacia AB, priority 1992, dated 1996).
